Legend:
GSPT1 = GSPT1 (Homo sapiens (Human), UniProt P15170+Q96SW2); experiment: Western blot, substrate protein expression in hPBMC: GSPT1; assay type: cell-based; conditions: hPBMC, compound 500 nM, 24 hours, Western blot
Summary of the method: (§1)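 hPBMC, 1×10^6 cells/mL, 24 h compound exposure; RIPA lysis, BCA protein assay, SDS-PAGE, NC membrane immunoblot. Densitometry vs internal control → % protein remaining; degradation % = 100% − remaining; DC50 = conc. at 50% of DMSO band signal.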

IKZF3 = IKZF3 (Homo sapiens (Human), UniProt Q96SW2+Q9UKT9); experiment: Western blot, substrate protein expression in hPBMC: IKZF3; assay type: cell-based; conditions: hPBMC, compound 500 nM, 24 hours, Western blot
Summary of the method: as §1

IKZF1 = IKZF1 (Homo sapiens (Human), UniProt Q13422+Q96SW2); experiment: Western blot, substrate protein expression in hPBMC: IKZF1; assay type: cell-based; conditions: hPBMC, compound 500 nM, 24 hours, Western blot
Summary of the method: as §1

[1] = target: human Cereblon WT GST-tagged protein (Homo sapiens (Human), UniProt Q96SW2); experiment: CRBN-binding affinity, HTRF (CEREBLON BINDING kit, CISBIO); conditions: HTRF inhibitory activity
Summary of the method: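 HTRF competition format: test compound displaces Thalidomide-Red from GST-tagged human Cereblon WT, detected with a Eu-labelled anti-GST antibody. Percent CRBN binding inhibition was derived from the 620 nm signal, normalized to solvent-control and protein-free blank wells.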

Sequence of IKZF3 (Q9UKT9 whole entry): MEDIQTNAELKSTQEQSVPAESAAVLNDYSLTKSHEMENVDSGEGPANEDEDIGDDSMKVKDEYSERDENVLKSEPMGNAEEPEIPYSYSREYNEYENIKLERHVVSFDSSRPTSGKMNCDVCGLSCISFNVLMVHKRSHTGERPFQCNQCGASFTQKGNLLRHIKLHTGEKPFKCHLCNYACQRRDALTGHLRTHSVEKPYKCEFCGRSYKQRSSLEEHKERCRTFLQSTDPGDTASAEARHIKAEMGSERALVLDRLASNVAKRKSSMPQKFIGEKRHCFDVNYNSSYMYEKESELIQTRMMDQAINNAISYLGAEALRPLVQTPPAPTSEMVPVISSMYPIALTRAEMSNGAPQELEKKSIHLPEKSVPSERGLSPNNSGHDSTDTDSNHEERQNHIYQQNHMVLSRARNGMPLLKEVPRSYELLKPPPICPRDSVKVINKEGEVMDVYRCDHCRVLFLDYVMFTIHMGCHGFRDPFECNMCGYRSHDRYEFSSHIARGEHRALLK
Sequence of IKZF3 (Q96SW2 whole entry): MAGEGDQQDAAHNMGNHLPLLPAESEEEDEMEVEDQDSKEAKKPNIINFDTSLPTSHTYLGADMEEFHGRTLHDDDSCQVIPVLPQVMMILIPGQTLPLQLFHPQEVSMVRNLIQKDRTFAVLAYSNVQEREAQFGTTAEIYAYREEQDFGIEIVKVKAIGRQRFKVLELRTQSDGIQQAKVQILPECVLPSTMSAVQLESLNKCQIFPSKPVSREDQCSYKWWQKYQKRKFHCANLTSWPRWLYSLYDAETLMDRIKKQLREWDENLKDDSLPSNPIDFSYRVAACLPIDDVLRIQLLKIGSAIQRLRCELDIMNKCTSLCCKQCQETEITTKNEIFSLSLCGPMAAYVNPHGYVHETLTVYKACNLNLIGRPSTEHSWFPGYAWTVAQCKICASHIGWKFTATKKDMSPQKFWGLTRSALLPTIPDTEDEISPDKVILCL
Sequence of IKZF3 (Q16531 whole entry partner): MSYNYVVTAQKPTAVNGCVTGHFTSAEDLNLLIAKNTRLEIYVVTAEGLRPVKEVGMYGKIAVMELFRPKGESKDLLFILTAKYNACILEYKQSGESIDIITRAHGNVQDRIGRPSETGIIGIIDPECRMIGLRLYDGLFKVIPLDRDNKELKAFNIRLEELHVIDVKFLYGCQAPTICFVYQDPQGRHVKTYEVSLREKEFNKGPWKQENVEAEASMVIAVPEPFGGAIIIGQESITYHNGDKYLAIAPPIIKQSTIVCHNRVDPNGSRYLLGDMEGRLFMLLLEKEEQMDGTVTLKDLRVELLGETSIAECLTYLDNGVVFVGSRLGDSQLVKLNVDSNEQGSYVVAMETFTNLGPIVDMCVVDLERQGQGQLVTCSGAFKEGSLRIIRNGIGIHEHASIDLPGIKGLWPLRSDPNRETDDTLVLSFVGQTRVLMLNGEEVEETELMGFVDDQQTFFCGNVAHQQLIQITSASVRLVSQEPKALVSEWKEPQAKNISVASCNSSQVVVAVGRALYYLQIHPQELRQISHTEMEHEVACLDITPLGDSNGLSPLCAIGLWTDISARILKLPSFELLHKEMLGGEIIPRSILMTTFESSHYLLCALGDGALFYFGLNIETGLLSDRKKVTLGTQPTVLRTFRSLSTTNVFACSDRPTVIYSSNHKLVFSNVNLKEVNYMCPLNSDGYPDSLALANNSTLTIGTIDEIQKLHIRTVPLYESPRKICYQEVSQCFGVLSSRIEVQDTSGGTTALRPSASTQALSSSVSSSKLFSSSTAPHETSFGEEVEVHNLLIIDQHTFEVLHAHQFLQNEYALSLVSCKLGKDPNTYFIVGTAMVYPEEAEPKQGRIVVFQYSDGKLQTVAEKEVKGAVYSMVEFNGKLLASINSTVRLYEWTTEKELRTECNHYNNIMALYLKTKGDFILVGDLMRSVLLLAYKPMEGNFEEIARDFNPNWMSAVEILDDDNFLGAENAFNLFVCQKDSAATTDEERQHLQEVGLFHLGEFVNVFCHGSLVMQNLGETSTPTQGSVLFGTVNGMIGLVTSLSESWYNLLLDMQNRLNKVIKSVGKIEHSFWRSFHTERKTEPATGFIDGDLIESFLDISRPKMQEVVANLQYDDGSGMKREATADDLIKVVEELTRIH
Sequence of IKZF1 (Q13422 whole entry): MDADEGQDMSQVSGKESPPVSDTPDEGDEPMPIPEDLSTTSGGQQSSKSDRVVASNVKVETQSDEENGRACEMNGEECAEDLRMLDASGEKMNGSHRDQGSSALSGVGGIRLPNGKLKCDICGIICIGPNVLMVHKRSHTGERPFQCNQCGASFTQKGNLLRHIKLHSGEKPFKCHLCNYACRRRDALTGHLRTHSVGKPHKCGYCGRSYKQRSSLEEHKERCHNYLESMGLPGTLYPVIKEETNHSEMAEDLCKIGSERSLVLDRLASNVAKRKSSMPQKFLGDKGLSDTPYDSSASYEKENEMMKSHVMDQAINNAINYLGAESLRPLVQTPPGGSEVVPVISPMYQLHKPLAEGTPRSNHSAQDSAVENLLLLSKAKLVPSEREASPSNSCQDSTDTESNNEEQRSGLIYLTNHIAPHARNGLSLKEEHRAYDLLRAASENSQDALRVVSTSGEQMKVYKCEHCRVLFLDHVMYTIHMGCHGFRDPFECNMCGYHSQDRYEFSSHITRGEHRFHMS
Sequence of IKZF1 (Q96SW2 whole entry): as the sequence (Q96SW2 whole entry) above
Sequence of IKZF1 (Q16531 whole entry partner): as the sequence (Q16531 whole entry partner) above
Sequence of human Cereblon WT GST-tagged protein (Q96SW2 whole entry): as the sequence (Q96SW2 whole entry) above
Sequence of GSPT1 (P15170 whole entry): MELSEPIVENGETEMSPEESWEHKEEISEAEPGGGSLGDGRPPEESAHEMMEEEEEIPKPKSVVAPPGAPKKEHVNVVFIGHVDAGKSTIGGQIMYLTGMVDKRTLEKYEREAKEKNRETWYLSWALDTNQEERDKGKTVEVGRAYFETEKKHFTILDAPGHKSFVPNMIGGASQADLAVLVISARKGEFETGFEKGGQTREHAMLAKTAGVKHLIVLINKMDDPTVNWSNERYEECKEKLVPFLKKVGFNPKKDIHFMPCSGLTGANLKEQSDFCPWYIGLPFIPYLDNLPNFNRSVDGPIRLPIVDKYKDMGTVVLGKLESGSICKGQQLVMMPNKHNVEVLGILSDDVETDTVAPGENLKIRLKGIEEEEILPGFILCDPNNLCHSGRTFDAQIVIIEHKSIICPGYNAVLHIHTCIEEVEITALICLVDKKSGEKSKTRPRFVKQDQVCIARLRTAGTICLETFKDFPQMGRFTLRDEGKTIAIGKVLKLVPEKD
Sequence of GSPT1 (Q96SW2 whole entry): as the sequence (Q96SW2 whole entry) above
Sequence of GSPT1 (Q16531 whole entry partner): as the sequence (Q16531 whole entry partner) above

| Structure (SMILES) | substrate protein remaining % GSPT1 (GSPT1) | substrate protein remaining % IKZF3 (IKZF3) | substrate protein remaining % IKZF1 (IKZF1) | IC50 [1] [nM] |
| --- | --- | --- | --- | --- |
| O=C1CCC(N2Cc3cc(C(=O)N4CC5CN(C(c6ccccc6)c6ccccc6)CC5C4)ccc3C2=O)C(=O)N1 (stereo not shown) [GT-06067, 3-(5-(5-benzhydryloctahydropyrrolo[3,4-c]pyrrole-2-carbonyl)-1-oxoisoindolin-2-yl)piperidine-2,6-dione] | A (A represents 0% ≤ substrate protein remaining % ≤ 50%) | B (B represents substrate protein remaining % > 50%) | B (B represents substrate protein remaining % > 50%) | 500 to 1000 |
| O=C1CCC(N2Cc3cc(C(=O)N4CCN(C(c5ccccc5)c5ccccc5)CC4C(F)(F)F)ccc3C2=O)C(=O)N1 (stereo not shown) [GT-06071, 3-(5-(4-benzhydryl-2-(trifluoromethyl)piperazine-1-carbonyl)-1-oxoisoindolin-2-yl)piperidine-2,6-dione] | A (A represents 0% ≤ substrate protein remaining % ≤ 50%) | B (B represents substrate protein remaining % > 50%) | B (B represents substrate protein remaining % > 50%) | 500 to 1000 |
| O=C1CCC(N2Cc3cc(C(=O)N4CCN(C(c5ccccc5)c5ccccc5)CC4C(F)(F)F)cc(F)c3C2=O)C(=O)N1 (stereo not shown) [GT-06090, 3-(5-(4-benzhydryl-2-(trifluoromethyl)piperazine-1-carbonyl)-7-fluoro-1-oxoisoindolin-2-yl)piperidine-2,6-dione] | A (A represents 0% ≤ substrate protein remaining % ≤ 50%) | B (B represents substrate protein remaining % > 50%) | B (B represents substrate protein remaining % > 50%) | 1000 to 1900 |
| C[C@@H]1CN(C(c2ccccc2)c2ccccc2)CCN1C(=O)c1ccc2c(c1)CN(C1CCC(=O)NC1=O)C2=O (stereo partly drawn) [GT-06092, 3-(5-((R)-4-benzhydryl-2-methylpiperazine-1-carbonyl)-1-oxoisoindolin-2-yl)piperidine-2,6-dione] | A (A represents 0% ≤ substrate protein remaining % ≤ 50%) | B (B represents substrate protein remaining % > 50%) | B (B represents substrate protein remaining % > 50%) | < 500 |
| C[C@@H]1CN(C(c2ccccc2)c2ccccc2)CCN1C(=O)c1cc(F)c2c(c1)CN(C1CCC(=O)NC1=O)C2=O (stereo partly drawn) [GT-06093, 3-(5-((R)-4-benzhydryl-2-methylpiperazine-1-carbonyl)-7-fluoro-1-oxoisoindolin-2-yl)piperidine-2,6-dione] | A (A represents 0% ≤ substrate protein remaining % ≤ 50%) | B (B represents substrate protein remaining % > 50%) | B (B represents substrate protein remaining % > 50%) | 500 to 1000 |
| O=C1CCC(N2Cc3cc(CN4CCN(C(c5ccccc5)c5ccccc5)CC4C(F)(F)F)ccc3C2=O)C(=O)N1 (stereo not shown) [GT-06095, 3-(5-((4-benzhydryl-2-(trifluoromethyl)piperazin-1-yl)methyl)-1-oxoisoindolin-2-yl)piperidine-2,6-dione] | A (A represents 0% ≤ substrate protein remaining % ≤ 50%) | B (B represents substrate protein remaining % > 50%) | B (B represents substrate protein remaining % > 50%) | 500 to 1000 |
| O=C1CCC(N2Cc3c(ccc(CN4CCN(C(c5ccccc5)c5ccccc5)CC4C(F)(F)F)c3F)C2=O)C(=O)N1 (stereo not shown) [GT-06096, 3-(5-((4-benzhydryl-2-(trifluoromethyl)piperazin-1-yl)methyl)-4-fluoro-1-oxoisoindolin-2-yl)piperidine-2,6-dione] | A (A represents 0% ≤ substrate protein remaining % ≤ 50%) | A (A represents 0% ≤ substrate protein remaining % ≤ 50%) | B (B represents substrate protein remaining % > 50%) | 500 to 1000 |
